Assays:
[1] = Log P, partition coefficient between water and octanol; assay type: physicochemical
Excerpt: Log P is the partition coefficient between water and octanol.

Structure (SMILES) | logP [1] | melting point [°C]
CC1COC(Cn2ncnc2S)(c2ccc(Oc3ccccc3)c(F)c2)O1 (stereo not drawn) [Example 67, 2-{2-[3-Fluoro-4-phenoxy-phenyl]-4-methyl-[1,3]dioxolan-2-yl-methyl}-2H-[1,2,4]triazole-3-thiol] |  | 62 to 64
CC1COC(Cn2ncnc2S)(c2cc(F)c(Oc3ccccc3)c(F)c2)O1 (stereo not drawn) [Example 68, 2-{2-[3,5-Difluoro-4-phenoxy-phenyl]-4-methyl-[1,3]dioxolan-2-yl-methyl}-2H-[1,2,4]triazole-3-thiol] |  | 139 to 141
CC1COC(Cn2cncn2)(c2ccc(Oc3ccccc3)c(F)c2)O1 (stereo not drawn) [Example 35, 1-{2-[3-Fluoro-4-phenoxy-phenyl]-4-methyl-[1,3]dioxolan-2-ylmethyl}-1H-[1,2,4]triazole] |  | 108 to 110
CC1COC(Cn2cncn2)(c2cc(F)c(Oc3ccccc3)cc2F)O1 (stereo not drawn) [Example 40, 1-{2-[3,6-Difluoro-4-phenoxy-phenyl]-4-methyl-[1,3]dioxolan-2-ylmethyl}-1H-[1,2,4]triazole] |  | 102 to 104
CC1COC(Cn2cncn2)(c2ccc(Oc3ccc(F)cc3F)cc2)O1 (stereo not drawn) [Example 4, 1-{2-[4-(2,4-Difluoro-phenoxy)-phenyl]-4-methyl-[1,3]dioxolan-2-ylmethyl}-1H-[1,2,4]triazole] |  | 83 to 86
CC1COC(Cn2ncnc2S)(c2ccc(Oc3ccc(Cl)cc3)c(F)c2)O1 (stereo not drawn) [Example 69, 2-{2-[4-(4-Chloro-phenoxy)-3-fluoro-phenyl]-4-methyl-[1,3]dioxolan-2-yl-methyl}-2H-[1,2,4]triazole-3-thiol] | 3.6 | 
CC1COC(Cn2ncnc2S)(c2ccc(Oc3ccc(Cl)cc3)cc2F)O1 (stereo not drawn) [Example 70, 2-{2-[4-(4-Chloro-phenoxy)-2-fluoro-phenyl]-4-methyl-[1,3]dioxolan-2-yl-methyl}-2H-[1,2,4]triazole-3-thiol] | 3.5 | 
CC1COC(Cn2cncn2)(c2ccc(Oc3c(F)cccc3Cl)cc2)O1 (stereo not drawn) [Example 6, 1-{2-[4-(6-Chloro-2-fluoro-phenoxy)-phenyl]-4-methyl-[1,3]dioxolan-2-ylmethyl}-1H-[1,2,4]triazole] |  | 112 to 114
CC1COC(Cn2cncn2)(c2cc(F)c(Oc3ccccc3)c(F)c2)O1 (stereo not drawn) [Example 41, 1-{2-[3,5-Difluoro-4-phenoxy-phenyl]-4-methyl-[1,3]dioxolan-2-ylmethyl}-1H-[1,2,4]triazole] | 3.7 | 
CC1COC(Cn2ncnc2S)(c2cc(F)c(Oc3ccc(Cl)cc3)cc2F)O1 (stereo not drawn) [Example 63, 2-{2-[4-(4-Chloro-phenoxy)-2,5-difluoro-phenyl]-4-methyl-[1,3]dioxolan-2-ylmethyl}-2H-[1,2,4]triazole-3-thiol] | 3.2 | 
CC1COC(Cn2ncnc2S)(c2cc(F)c(Oc3ccccc3)cc2F)O1 (stereo not drawn) [Example 64, 2-{2-[2,5-Difluoro-4-phenoxy-phenyl]-4-methyl-[1,3]dioxolan-2-yl-methyl}-2H-[1,2,4]triazole-3-thiol] | 2.9 | 

Other lines, results leading:

logP [1] | melting point [°C] | Structure (SMILES)
4.2 |  | CC1COC(Cn2cncn2)(c2ccc(Oc3ccc(Cl)cc3)c(F)c2)O1 (stereo not drawn) [Example 32, 1-{2-[4-(4-Chloro-phenoxy)-3-fluoro-phenyl]-4-methyl-[1,3]dioxolan-2-ylmethyl}-1H-[1,2,4]triazole]
 | 112 to 114 | CCC1COC(Cn2cncn2)(c2ccc(Oc3ccc(F)cc3F)cc2)O1 (stereo not drawn) [Example 5, 1-{2-[4-(2,4-Difluoro-phenoxy)-phenyl]-4-ethyl-[1,3]dioxolan-2-ylmethyl}-1H-[1,2,4]triazole]
 | 105 to 106 | CCCC1COC(Cn2ncnc2S)(c2ccc(Oc3ccc(Cl)cc3)cc2Cl)O1 (stereo not drawn) [Example 65, 2-{2-[2-Chloro-4-(4-chloro-phenoxy)-phenyl]-4-propyl-[1,3]dioxolan-2-yl-methyl}-2H-[1,2,4]triazole-3-thiol]
 | 113 to 115 | CC1COC(Cn2cncn2)(c2ccc(Oc3ccc(Cl)cc3F)cc2)O1 (stereo not drawn) [Example 3, 1-{2-[4-(4-Chloro-2-fluoro-phenoxy)-phenyl]-4-methyl-[1,3]dioxolan-2-ylmethyl}-1H-[1,2,4]triazole]
 | 153 to 155 | COCC1COC(Cn2ncnc2S)(c2ccc(Oc3ccc(Cl)cc3)cc2Cl)O1 (stereo not drawn) [Example 66, 2-{2-[2-Chloro-4-(4-chloro-phenoxy)-phenyl]-4-methoxymethyl-[1,3]dioxolan-2-ylmethyl}-2H-[1,2,4]triazole-3-thiol]
5 |  | CCC1COC(Cn2cncn2)(c2ccc(Oc3ccc(Cl)cc3)cc2Cl)O1 (stereo not drawn) [Example 38, 1-{2-[2-Chloro-4-(4-chloro-phenoxy)-phenyl]-4-ethyl-[1,3]dioxolan-2-ylmethyl}-1H-[1,2,4]triazole]
5.4 |  | CCCC1COC(Cn2cncn2)(c2ccc(Oc3ccc(Cl)cc3)cc2Cl)O1 (stereo not drawn) [Example 39, 1-{2-[2-Chloro-4-(4-chloro-phenoxy)-phenyl]-4-propyl-[1,3]dioxolan-2-ylmethyl}-1H-[1,2,4]triazole]
 | 90 to 95 | CCC1COC(Cn2cncn2)(c2ccc(Oc3c(F)cccc3F)cc2)O1 (stereo not drawn) [Example 9, 1-{2-[4-(2,6-Difluoro-phenoxy)-phenyl]-4-ethyl-[1,3]dioxolan-2-ylmethyl}-1H-[1,2,4]triazole]
 | 119.9 | CC1COC(Cn2cncn2)(c2ccc(Oc3cc(F)ccc3F)cc2Cl)O1 (stereo not drawn) [Example 26, 1-{2-[2-Chloro-4-(2,5-difluoro-phenoxy)-phenyl]-4-methyl-[1,3]dioxolan-2-ylmethyl}-1H-[1,2,4]triazole]
 | 86 to 88 | CC1COC(Cn2cncn2)(c2cc(F)c(Oc3ccc(Cl)cc3)cc2F)O1 (stereo not drawn) [Example 37, 1-{2-[4-(4-Chloro-phenoxy)-2,5-difluoro-phenyl]-4-methyl-[1,3]dioxolan-2-ylmethyl}-1H-[1,2,4]triazole]

— US20120088663A1, “Triazole Compounds Carrying a Sulfur Substituent” (BASF SE, priority 2009, published 2012)
